Non-standard residues stand in square brackets, D forms with d. Residues, ends and D or L forms follow the SMILES beside them. *: point of attachment. d(αMeV) = CC(C)[C@@](C)(N)C(=O)O; αMeV = CC(C)[C@](C)(N)C(=O)O; X1 = C[C@@H](N*)C(F)(F)F; Cbz = O=C(OCc1ccccc1)*; Aib = CC(C)(N)C(=O)O
Assay: Maximum solubility of foldamer in chloroform (saturated solution, 1H NMR)
Type: physicochemical
Conditions: thermodynamic, dissolved in CDCl3 until saturated; concentration by 1H NMR against a known concentration of CH2Cl2 as internal reference
Protocol: 9. Quantification of foldamer solubility and self-association in CHCl3
9.1 Experimental procedure (dilution)
Compounds 5d (L-αMeVal) and 5e (D-αMeVal) were dissolved in CDCl3 until saturated solutions were formed.
The initial concentration of each sample was measured using a known concentration of CH2Cl2 as an internal […]
Additional volumes of CDCl3 were added to the initial solution and the 1H NMR spectrum at each concentration […]
The binding isotherms were generated using an Excel spreadsheet macro developed by Sanderson.S7a The Solver add-in for Excel was used to calculate the best fit to the NMR data using the ‘GRG onlinear Solvin […]
The following equilibrium is used to calculate the binding isotherms:
Where Kdim is the microscopic association constant and n = 2.
The following equation is used to calculate the binding isotherm: […]
δfree is the free chemical shift of the host
δobs is the observed chemical shift […]
The concentration of the dimeric complex (H)2 is calculated iteratively by solving the following equations: […]
The concentration of free host is calculated according to the concentration difference […]
The propensity of the L-αMeVal-capped foldamer 5d and D-αMeVal-capped foldamer 5e to self-associate was investigated in chloroform by performing a dilution study,S7 which at the same time quantified the solubility of these compounds in this solvent. […]

| maximum solubility in CHCl3 / chloroform-d [mM] | Compound |
| --- | --- |
| 288 | CC(C)[C@](C)(NC(=O)OCc1ccccc1)C(=O)NC(C)(C)C(=O)NC(C)(C)C(=O)NC(C)(C)C(=O)NC(C)(C)C(=O)N[C@H](C)C(F)(F)F [5d, Cbz(L-MeVal)Aib4(R-TFEA)] (Cbz-[αMeV][Aib][Aib][Aib][Aib]-X1) |
| 50 | CC(C)[C@@](C)(NC(=O)OCc1ccccc1)C(=O)NC(C)(C)C(=O)NC(C)(C)C(=O)NC(C)(C)C(=O)NC(C)(C)C(=O)N[C@H](C)C(F)(F)F [5e, Cbz(D-MeVal)Aib4(R-TFEA)] (Cbz-[d(αMeV)][Aib][Aib][Aib][Aib]-X1) |

— PMC9716558, “A Chiral ^19F NMR Reporter of Foldamer Conformation in Bilayers” (Journal of the American Chemical Society, 2022)
